Publication PMC12589487, “Molecular basis of vitamin K-dependent protein γ-glutamyl carboxylation” (Cell Research, 2025)

Assays:
GGCX [1] = biological target: T1, GGCX (Homo sapiens, UniProt P38435); assay: binding assay, method not told in main text (Fig. S8); conditions: form and homologue of vitamin K not told in main text
T1 construct: Flag-tagged GGCX used in pull-downs
T1 sequence (P38435 2-758): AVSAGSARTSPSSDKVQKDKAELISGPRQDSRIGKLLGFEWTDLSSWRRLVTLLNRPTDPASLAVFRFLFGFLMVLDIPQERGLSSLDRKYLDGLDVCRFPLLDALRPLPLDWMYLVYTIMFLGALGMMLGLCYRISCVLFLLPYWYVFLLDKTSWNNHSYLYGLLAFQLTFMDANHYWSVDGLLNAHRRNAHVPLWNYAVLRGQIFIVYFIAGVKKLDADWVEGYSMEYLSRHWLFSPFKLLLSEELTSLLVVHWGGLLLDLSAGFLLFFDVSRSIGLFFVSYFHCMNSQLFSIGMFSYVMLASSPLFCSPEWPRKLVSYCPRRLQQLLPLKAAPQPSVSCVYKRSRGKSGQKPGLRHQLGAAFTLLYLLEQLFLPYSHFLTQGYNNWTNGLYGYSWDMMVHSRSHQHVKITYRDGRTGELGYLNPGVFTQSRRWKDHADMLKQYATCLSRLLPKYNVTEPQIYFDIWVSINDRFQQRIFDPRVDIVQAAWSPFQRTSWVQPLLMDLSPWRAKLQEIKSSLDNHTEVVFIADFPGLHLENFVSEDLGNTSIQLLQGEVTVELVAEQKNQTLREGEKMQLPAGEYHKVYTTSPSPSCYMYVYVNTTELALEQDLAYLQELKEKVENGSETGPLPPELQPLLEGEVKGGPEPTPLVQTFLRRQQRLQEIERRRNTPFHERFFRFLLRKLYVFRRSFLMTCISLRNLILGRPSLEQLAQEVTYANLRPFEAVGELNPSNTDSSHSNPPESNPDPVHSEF

GGCX•FIX complex [2] = biological target: T2, GGCX•FIX complex (Homo sapiens, UniProt P38435); assay: cryo-EM structure, […] Å; assay type: binding
T2 construct: GGCX co-expressed with full-length FIX in HEK293F cells, cryo-EM in detergent micelle; FIX propeptide and GLA domain (residues 29-92) resolved; WT and K217A/K218A GGCX; with Coagulation factor IX

GGCX•FIX complex [3] = biological target: T3, GGCX•FIX complex (Homo sapiens, UniProt P38435, K217A/K218A); assay: cryo-EM structure, […] Å; assay type: binding; conditions: catalytically inactive GGCX double mutant
T3 construct: GGCX co-expressed with full-length FIX in HEK293F cells, cryo-EM in detergent micelle; FIX propeptide and GLA domain (residues 29-92) resolved; WT and K217A/K218A GGCX; with Coagulation factor IX

GGCX^AA•FX complex = biological target: T4, GGCX^AA•FX complex (Homo sapiens, UniProt P38435, K217A/K218A); assay: cryo-EM structure, […] Å; assay type: binding; conditions: catalytically inactive GGCX double mutant
T4 construct: GGCX K217A/K218A double mutant in complex with FX, cryo-EM; with Coagulation factor X

GGCX [4] = biological target: T1, GGCX; assay: binding assay, method not told in main text (Fig. S9); conditions: homologue not told in main text

T2 sequence (P38435 whole entry, the tested form may be a part): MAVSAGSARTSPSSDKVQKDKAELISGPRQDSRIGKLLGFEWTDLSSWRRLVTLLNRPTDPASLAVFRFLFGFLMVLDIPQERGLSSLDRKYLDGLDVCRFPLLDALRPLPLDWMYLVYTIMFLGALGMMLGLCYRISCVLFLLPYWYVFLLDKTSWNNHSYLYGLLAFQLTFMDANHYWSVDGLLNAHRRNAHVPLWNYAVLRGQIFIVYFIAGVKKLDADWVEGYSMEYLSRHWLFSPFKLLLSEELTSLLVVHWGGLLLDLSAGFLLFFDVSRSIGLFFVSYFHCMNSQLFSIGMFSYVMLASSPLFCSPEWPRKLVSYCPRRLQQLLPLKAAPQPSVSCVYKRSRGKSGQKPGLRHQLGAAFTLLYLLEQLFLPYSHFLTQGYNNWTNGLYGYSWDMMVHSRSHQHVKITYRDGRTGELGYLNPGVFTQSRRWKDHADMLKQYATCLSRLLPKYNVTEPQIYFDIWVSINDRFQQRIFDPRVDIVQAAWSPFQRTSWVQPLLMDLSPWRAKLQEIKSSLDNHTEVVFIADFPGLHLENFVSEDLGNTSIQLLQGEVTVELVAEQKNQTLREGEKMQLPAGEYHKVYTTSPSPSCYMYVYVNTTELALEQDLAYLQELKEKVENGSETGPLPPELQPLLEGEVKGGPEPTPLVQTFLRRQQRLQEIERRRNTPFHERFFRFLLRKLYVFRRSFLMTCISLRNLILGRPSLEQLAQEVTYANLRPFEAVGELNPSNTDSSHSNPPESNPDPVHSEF
T2 sequence (P00740 29-461 partner): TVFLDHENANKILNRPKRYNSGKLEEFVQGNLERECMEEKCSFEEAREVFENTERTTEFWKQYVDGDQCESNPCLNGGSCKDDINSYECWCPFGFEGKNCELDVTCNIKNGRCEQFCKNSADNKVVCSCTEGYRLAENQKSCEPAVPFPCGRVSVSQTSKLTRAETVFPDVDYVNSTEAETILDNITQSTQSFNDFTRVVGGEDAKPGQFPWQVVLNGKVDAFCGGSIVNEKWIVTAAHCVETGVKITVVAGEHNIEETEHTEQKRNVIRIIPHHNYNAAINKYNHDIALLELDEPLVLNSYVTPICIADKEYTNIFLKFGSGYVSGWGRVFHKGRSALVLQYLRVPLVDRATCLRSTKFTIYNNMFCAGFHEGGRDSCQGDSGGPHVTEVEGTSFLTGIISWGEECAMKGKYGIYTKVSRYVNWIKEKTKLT
T3 sequence (P38435 whole entry K217A/K218A, the tested form may be a part): as the sequence (P38435 whole entry, the tested form may be a part) above, with K217A, K218A counted along it
T3 sequence (P00740 29-461 partner): as the sequence (P00740 29-461 partner) above
T4 sequence (P38435 whole entry K217A/K218A): as the sequence (P38435 whole entry, the tested form may be a part) above, with K217A, K218A counted along it
T4 sequence (P00742 32-488 partner limits assumed): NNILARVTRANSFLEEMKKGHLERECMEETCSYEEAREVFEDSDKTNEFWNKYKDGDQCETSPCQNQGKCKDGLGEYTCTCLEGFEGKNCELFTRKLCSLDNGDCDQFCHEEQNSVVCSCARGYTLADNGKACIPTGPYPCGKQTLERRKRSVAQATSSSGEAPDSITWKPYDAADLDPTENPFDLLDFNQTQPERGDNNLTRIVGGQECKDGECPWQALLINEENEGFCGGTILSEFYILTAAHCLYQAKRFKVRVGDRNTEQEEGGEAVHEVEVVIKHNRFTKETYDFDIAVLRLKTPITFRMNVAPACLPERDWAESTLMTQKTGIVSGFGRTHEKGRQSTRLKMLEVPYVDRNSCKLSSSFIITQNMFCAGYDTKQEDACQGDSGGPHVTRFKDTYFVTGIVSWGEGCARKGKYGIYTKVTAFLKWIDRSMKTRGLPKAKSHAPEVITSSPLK

Molecule: vitamin K
- Kd (GGCX [1]): ~0.85 µM

Molecule: CC(C)=CCC/C(C)=C/CC/C(C)=C/CC/C(C)=C/Cc1c(C)c(O)c2ccccc2c1O [MKH2-4]
- cryo-EM structure, 2.78 Å (GGCX•FIX complex [2]; co-purified endogenous vitamin K, MK-4 by LC-MS/MS, ligand modelled by superposition with the K217A/K218A complex): Superimposing GGCX^WT•FIX onto GGCX^AA•FIX facilitated modeling of MKH2-4 into the WT binding pocket
- cryo-EM structure, 2.59 Å (GGCX•FIX complex [3]): unambiguous assignment of the bound molecule as MK-4 hydroquinone (MKH2-4)
- cryo-EM structure, 2.58 Å (GGCX^AA•FX complex): unambiguous assignment of the bound molecule as MK-4 hydroquinone (MKH2-4)

Molecule: VKO
- Kd (GGCX [4]): ~8.19 µM

Molecule: CC(C)CCC[C@@H](C)[C@H]1CC[C@H]2[C@@H]3CC=C4C[C@@H](O)CC[C@]4(C)[C@H]3CC[C@]12C [cholesterol]
- cryo-EM structure, 2.78 Å (GGCX•FIX complex [2]; co-purified lipid, which deposited model holds it is not told explicitly): A well-resolved co-purified cholesterol was also observed
